According to patent US9643933B2, “Compounds useful as antibiotic tolerance inhibitors” (priority 2013, dated 2017):
Like-named read-outs stand apart in the source and are kept apart here.

Tests used:
HHQ = experiment: Assay for HHQ Inhibition (6 Hour Incubation); format: cell-based, P. aeruginosa PA14 wild-type strain
Method: (§1) A concentration range with 7 test concentrations is chosen for each test compound. Typically concentration ranges for the PQS and HHQ assays are from 0.03 to 31.6 μM. Compounds are prepared in solvent, usually DMSO, at either 200 or 500 times the final test concentration.
(§2) P. aeruginosa PA14 wild-type strain is inoculated into 5 ml LB broth in a 15 ml sterile glass culture tube and incubated overnight at 37° C. under shaking (˜240 rpm). After overnight incubation, the bacterial culture is diluted in fresh LB broth to an OD600 nm=0.04, and 5 mL aliquots of the diluted bacterial culture are distributed into 15-mL glass tubes. 10 μL of test compound at 500 times the final test concentration or 25 μL of test compound at 200 times the final test concentration or solvent alone is added to each of the bacterial suspension tubes, and the tubes are incubated at 37° C. under shaking (300 rpm) for 6 hours. At the end of the incubation period, a 0.5 mL aliquot of bacterial suspension is transferred from each 15 mL glass tube, after shaking, to a 2 mL polypropylene vial. 0.5 mL of methanol-containing D4-PQS (deuterated-PQS), D4-HHQ (deuterated-HHQ) and 2% acetic acid are added to each 2 mL vial and each vial is vigorously shaken. The vials are then centrifuged for 5 minutes at 12,000 g, and 200 μL of supernatant from each vial is transferred to a glass vial (vials crimp 0.2 mL), and the sealed vials are kept at 4° C. until LC-MS/MS analysis is performed. HAQs quantification is carried out analyzing samples in discrete batches together with spiked standards and blank samples. Calibration curves are constructed from HAQs standards, and respective deuterated forms are used as Internal Standards (IS), to calculate the concentration of analytes in the sample and improve the precision of the assay. The back-calculated concentrations of the calibration standards from the calibration curve shall be within ±20% of the nominal values, the range of the analytical method is determined, and the lower and upper limit of quantification specified.
(§3) Liquid chromatography separations are performed using Agilent HP1100 system (Agilent Technologies) coupled with a CTC PAL Autosampler (CTC Analytics AG). Chromatographic retention is obtained using a monolithic column (Chromolith® RP-18, 50×4.6 mm). The solvent system consists of water containing 0.1% (v/v) formic acid (A) and acetonitrile containing 0.1% (v/v) formic acid (B). The gradient elution profile is chosen as follows: 0 min: 70% A (1500 μL/min), 0.3 min: 70% A (1500 μL/min), 1.3 min: 5% A (2500 μL/min), 1.6 min: 5% A (2500 μL/min).
(§4) The MS/MS analysis is performed with a API4000 series mass spectrometer (AB Sciex™) operating in Multiple Reaction Monitoring (MRM) mode and equipped with a TIS ion source. The specific ions monitored are PQS (m/z 260→m/z 175), D4-PQS (m/z 264→m/z 179), HHQ (m/z 244→m/z 159) and D4-HHQ (m/z 248→m/z 163). PQS and HHQ in presence of different test compound concentrations are expressed as percentage of inhibition of the basal level in control samples.

PQS = experiment: Assay for PQS Inhibition (6 Hour Incubation); format: cell-based, P. aeruginosa PA14 wild-type strain
Method: as §1, §2, §3, §4

[1] = Pseudomonas aeruginosa, PA14, 6 h, read-out: HHQ (6 hr) IC50 (μM)
[2] = Pseudomonas aeruginosa, PA14, 6 h, read-out: PQS (6 hr) IC50 (μM)

Compound	IC50 (HHQ; P. aeruginosa PA14 culture, 6 hours incubation, HHQ by LC-MS/MS, read-out: HHQ (6 hr) IC50) [µM]	IC50 (PQS; P. aeruginosa PA14 culture, 6 hours incubation, PQS by LC-MS/MS, read-out: PQS (6 hr) IC50) [µM]	IC50 (HHQ; [1]) [µM]	IC50 (PQS; [2]) [µM]
2-((5-chloro-1H-benzo[d]imidazol-2-yl)thio)-N-(4-(pyrimidin-5-yloxy)phenyl)acetamide [Compound 79]	< 1	< 1	–	–
N#Cc1ccc(NC(=O)CSc2nc3cc(C(F)(F)F)ccc3[nH]2)cc1 [Compound 56]	–	–	< 1	< 1
N#Cc1ccc(NC(=O)CSc2nc3cc(F)ccc3[nH]2)cc1 [Compound 57]	–	–	1 to 5	1 to 5
O=C(CNc1nc2cc(Cl)ccc2s1)Nc1ccc(Oc2cccnc2)cc1 [Compound 71, 2-((5-chlorobenzo[d]thiazol-2-yl)amino)-N-(4-(pyridin-3-yloxy)phenyl)acetamide]	–	–	1 to 5	1 to 5
O=C(CNc1nc2cc(Cl)ccc2o1)Nc1ccc(Oc2cccnc2)cc1 [Compound 74, 2-((5-chlorobenzo[d]oxazol-2-yl)amino)-N-(4-(pyridin-3-yloxy)phenyl)acetamide]	–	–	< 1	1 to 5
O=C(CSc1nc2cc(Cl)ccc2[nH]1)Nc1ccc(Oc2cccnc2)cc1 [Compound 77, 2-((5-chloro-1H-benzo[d]imidazol-2-yl)thio)-N-(4-(pyridin-3-yloxy)phenyl)acetamide]	–	–	< 1	< 1
O=C(CSc1nc2cc(Cl)ccc2[nH]1)Nc1ccc(Oc2cccnc2Cl)cc1 [Compound 83, 2-((5-chloro-1H-benzo[d]imidazol-2-yl)thio)-N-(4-((2-chloropyridin-3-yl)oxy)phenyl)acetamide]	–	–	< 1	< 1
O=C(CSc1nc2cc(Cl)ccc2[nH]1)Nc1ccc(Oc2ccc(Cl)nc2)cc1 [Compound 84, 2-((5-chloro-1H-benzo[d]imidazol-2-yl)thio)-N-(4-((6-chloropyridin-3-yl)oxy)phenyl)acetamide]	–	–	< 1	< 1
O=C(CCc1nc2cc(Cl)ccc2s1)Nc1ccc(Oc2cccnc2)cc1 [Compound 85, 3-(5-chlorobenzo[d]thiazol-2-yl)-N-(4-(pyridin-3-yloxy)phenyl)propanamide]	–	–	1 to 5	1 to 5
O=C(CCc1nc2ccc(Cl)cc2s1)Nc1ccc(Oc2cccnc2)cc1 [Compound 86, 3-(6-Chlorobenzo[d]thiazol-2-yl)-N-(4-(pyridin-3-yloxy)phenyl)propanamide]	–	–	> 10	> 10
N#Cc1ccc(NC(=O)CSc2nc3ccc(C#N)cc3[nH]2)cc1 [Compound 93]	–	–	< 1	1 to 5
N#Cc1ccc2nc(SCC(=O)Nc3ccc(Cl)cc3)[nH]c2c1 [Compound 94]	–	–	1 to 5	1 to 5
N#Cc1ccc(NC(=O)CSc2nc3cc(Br)ccc3[nH]2)cc1 [Compound 96]	–	–	< 1	< 1
N#Cc1ccc(NC(=O)CSc2nc3cc(OC(F)F)ccc3[nH]2)cc1 [Compound 104]	–	–	1 to 5	1 to 5
O=C(CSc1nc2cc(C(F)(F)F)ccc2[nH]1)Nc1ccc(Cl)cc1 [Compound 105]	–	–	< 1	< 1
O=C(CSc1nc2cc(F)ccc2[nH]1)Nc1ccc(Cl)cc1 [Compound 110]	–	–	1 to 5	1 to 5
O=C(CSc1nc2ccc(-n3cccn3)cc2[nH]1)Nc1ccc(Cl)cc1 [Compound 116]	–	–	> 10	> 10
N#Cc1ccc(NC(=O)CSc2nc3cc(Cl)ccc3[nH]2)cc1 [Compound 125]	–	–	< 1	< 1
O=C(CSc1nc2cc(F)c(F)cc2[nH]1)Nc1ccc(Br)cc1 [Compound 126]	–	–	–	1 to 5
O=C(CSc1nc2ccc(Cl)cc2[nH]1)Nc1ccc(Cl)cc1 [Compound 137]	–	–	< 1	< 1
COc1ccc(NC(=O)CSc2nc3ccc(Cl)cc3[nH]2)cc1 [Compound 140]	–	–	–	5 to 10
N#Cc1ccc(NC(=O)CSc2nc3cc(Cl)ccc3[nH]2)cc1Cl [Compound 142]	–	–	< 1	< 1
O=C(CSc1nc2ccc(Br)cc2[nH]1)Nc1ccc(Cl)cc1 [Compound 145]	–	–	< 1	< 1
N#Cc1ccc(NC(=O)CSc2nc3cc(Br)ccc3o2)cc1 [Compound 147]	–	–	< 1	< 1
O=C(CCc1nc2ccc(Cl)cc2[nH]1)Nc1ccc(Oc2cccnc2)cc1 [Compound 152, 3-(5-chloro-1H-benzo[d]imidazol-2-yl)-N-(4-(pyridin-3-yloxy)phenyl)propanamide]	–	–	< 1	< 1
